# Data taken from patent US20040024043A1, “Method for treating cognitive disorders” (priority 2002, published 2004).
# “Also recorded” adds a separate entry of the source.
# What was measured:
# [1] = test system: βAPP levels in SK-N-SH cells; experiment: βAPP levels by Western blot in neuroblastoma cells; format: cell-based; details: 0.5 μM to 50 μM, various time intervals up to 16 hours
# Procedure: (§1) The (+) enantiomer of formula I prepared in Example 2 was tested against its phenserine with respect to controlling β-APP levels in and the resulting toxic amyloid protein (Aβ protein) derived from the β-APP-protein by the procedure disclosed in the Shaw et al. Proc. Nat. Acad. Sci. USA (2001), 98 (13), 7605-7610. Pages […] except that the test given below included (+) enantiomer of phenserine as well as phenserine itself so that phenserine and its (+) enantiomer were tested side by side for their effect in reducing the β-APP and Aβ-proteins. The methodology of Shaw et al for carrying out these tests is summarized as follows:
# (§2) Drug treatment: SK-N-SH neuroblastoma cells were cultured on 60 mm dishes at a concentration of 3×10^6 cells, and SH-SY-5Y neuroblastoma cells were plated in 100 mm dishes at a concentration of 3×10^5 cells. The cells were allowed to grow in complete media (10% FBS, 2 mM glutamine in DMEM) for 3 to 4 days until they reached 70% confluence. To start the experiment, spent media were removed and replaced with fresh media (DMEM+0.5% FBS) containing 0, 5 or 50 μM of either (−)- or (+)-phenserine, and cells were incubated at 37 C, 5% CO2 for the specific times indicated.
# Lysate preparation: At each time point, the spent medium was collected and stored at −70 C for later analysis of secretory βAPP levels. Cell lysates were prepared as reported previously (Lahiri et al., 1997 and 1998). Protein levels of the supernatant were analyzed by the Bradford protein assay (BioRad, Mellville, N.Y.).
# Western Blot: Fifteen μg of protein from each sample was laded onto a 10% NuPAGE Bis-Tris gel in 1× NuPAGE MOPS SDS running buffer (NOVEX, San Diego, Calif.) and the proteins separated at 200 V for 45 min. The gels then were transferred onto nitrocellulose at 25 V for 1.5 h. […] Equivalent loading of samples was determined by Ponceau S staining (Sigma, St. Louis, Mo.). Densimetric quantification of the chemiluminesence of blots was undertaken by using a […] and NIH-IMAGE (version 4.1).
# [2] = test system: Aβ protein levels in SK-N-SH cells; experiment: Total Aβ assay (ELISA) in neuroblastoma cell cultures; format: cell-based; details: especially after 10 hours
# Procedure: as §1, §2
# Total Aβ Assay: Total Aβ peptide levels in SH-SY-5Y and SK-N-SH cultured samples were assayed by a sensitive ELISA (Suzuki et al., 1994). For total Aβ measurements, the a sandwich immunoassay with rabbit polyclonal antibody to residues 1-40 residues of Aβ as a capture antibody for all species of Aβ peptide Aβ1-40 and Aβ1-42 and the monoclonal antibody to 17-25 residues of Aβ was used to detect Aβ peptide levels, and the values were expressed as the mean of six independent assays.
# [3] = In vivo studies: cholinergic side effects after i.p. administration; details: rodents
# Procedure: This is a classical central (i.e., brain) cholinergic over-stimulation (overdrive) effect. Such a tremor persisted for approximately 1 hour.
# acetylcholinesterase [4] = target: T1, acetylcholinesterase (Homo sapiens, UniProt P22303); details: as stated in Shaw et al., PNAS 2001; read-out: concentration of compound required to inhibit 50% acetylcholinesterase activity; cited from earlier work
# Target sequence in this assay (P22303 32-614, species assumed): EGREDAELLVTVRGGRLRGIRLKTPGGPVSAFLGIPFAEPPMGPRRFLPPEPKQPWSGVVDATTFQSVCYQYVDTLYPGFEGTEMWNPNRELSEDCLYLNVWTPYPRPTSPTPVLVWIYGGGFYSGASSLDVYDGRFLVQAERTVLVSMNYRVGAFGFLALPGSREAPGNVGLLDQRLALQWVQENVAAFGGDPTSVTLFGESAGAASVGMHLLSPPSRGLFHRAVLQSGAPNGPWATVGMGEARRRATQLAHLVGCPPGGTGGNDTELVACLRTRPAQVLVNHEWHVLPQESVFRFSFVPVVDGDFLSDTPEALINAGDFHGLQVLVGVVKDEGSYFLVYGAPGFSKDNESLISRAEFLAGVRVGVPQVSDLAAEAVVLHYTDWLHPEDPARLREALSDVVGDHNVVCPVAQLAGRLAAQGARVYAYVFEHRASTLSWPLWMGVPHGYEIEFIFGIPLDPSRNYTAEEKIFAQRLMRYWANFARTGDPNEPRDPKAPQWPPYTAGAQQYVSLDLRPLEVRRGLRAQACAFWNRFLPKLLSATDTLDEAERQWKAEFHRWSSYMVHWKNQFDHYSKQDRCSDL
# acetylcholinesterase [5] = target: T1, acetylcholinesterase; details: compared with negative enantiomer phenserine; Pei, Greig et al. 1995; cited from earlier work
# Target sequence in this assay (P22303 32-614): as the sequence (P22303 32-614, species assumed) above
# [6] = Randomized, double-blind, placebo-controlled 12-week efficacy study (NPI, CGIC, ADAS-cog, MMSE, CANTAB, ADCS-ADL); format: in vivo, patients; details: 50 mg BID 2 weeks then 100 mg BID 10 weeks
# Source text: A randomized, double-blind, placebo-controlled study is done to measure the efficacy of the (+) phenserine tartrate or formation as in Example 6 in given daily over twelve (12) weeks, in 60 patients diagnosed as having symptoms similar to those caused by Alzheimer's disease (PAD). In this study there was a total of 60 eligible patients with PAD whose primary language is English, and the patients constituted male and female patients between the ages of 50 and 85 years.
# Forty patients will receive two weeks of PT and a 50 mg BID dose level, at which time their dose will be escalated to 100 mg BID, where it will remain for the final ten (10) weeks. Concurrently, twenty patients assigned to placebo medication receive matched placebo capsules for the entire 12 week duration of the study. A sufficient number of potential patients are screened to ensure enrollment of 60 eligible cases.
# All study participants were evaluated prior to the study (First Level) and periodically throughout using the following standard efficacy tests;
# NPI (Neuropsychiatric Inventory,
# CGIC (Clinician's Global Impression of Change)
# ADAS-cog (Alzheimer's Disease Assessment Scale—cognitive subscale)
# MMSE (Mini-Mental State Exam)
# CANTAB (Cambridge Neuropsychological Test Automated Battery—
# ADCS-ADL (Activities of Daily Living)
SMILES,βAPP levels compared to control ([1]; FIGS. 1 and 3),levels of Aβ protein compared to control ([2]; FIGS. 2 and 3),persistence of tremor ([3]; 5 mg/kg),symptoms observed ([3]; 5 mg/kg (1 ml/kg in isotonic saline)),symptoms observed ([3]; 7.5 mg/kg),"animals killed when moribund, of 5 treated animals ([3]; 20 mg/kg)",symptoms observed ([3]; 20 mg/kg),"βAPP levels compared to control ([1]; FIGS. 1 and 3, listed as positive isomer of phenserine)","levels of Aβ protein compared to control ([2]; FIGS. 2 and 3, listed as positive isomer of phenserine)",IC50 (acetylcholinesterase [4]) [µM],activity as an inhibitor of human acetylcholinesterase (acetylcholinesterase [5]),"level in the efficacy tests at end of twelve weeks versus First Level prior to treatment ([6]; patients with symptoms similar to Alzheimer's disease, oral capsules)",patients with an improvement over First Level at end of twelve-week period ([6]; treated group)
"CN1CC[C@@]2(C)c3cc(OC(=O)Nc4ccccc4)ccc3N(C)C12 (single isomer, unassigned; (-)) [(−)-phenserine, (−) N-(−)-N phenyl canbamoyleseroline]",reduces secreted and cellular βAPP levels in a concentration dependent manner; also recorded: decreased the βAPP levels,reduced Aβ protein levels; also recorded: substantially reduced,approximately 1 hour,fine tremor,"Tremor, together with symptoms of peripheral over-stimulation (specifically, lacrimation and salivation)",2,incapacitated by severe tremor and peripheral side effects,–,–,–,–,–,–
"CN1CC[C@]2(C)c3cc(OC(=O)Nc4ccccc4)ccc3N(C)C12 (single isomer, unassigned; (+)) [(+)-phenserine, (+) 9-N-phenylcarbinol esroline]",effective in reducing,effective in reducing,–,–,–,–,entirely without symptoms,reduces the production,reduces the production,> 25,far less active,–,–
"CN1CC[C@]2(C)c3cc(OC(=O)Nc4ccccc4)ccc3N(C)[C@H]12.O=C(O)C(O)C(O)C(=O)O (single isomer, unassigned) [(+) phenserine tartrate, tartaric acid salt of the +enantiomer of N-phenyl carbanoyl eseroline]",–,–,–,–,–,–,–,–,–,–,–,maintain a level at least as great as the First Level,about 30%
